Assay results published in PubChem BioAssay (NCI).
Where “and” joins values, the source holds several entries; their conditions need not be identical. Identical values can stand only once.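 Protocol summary: plate cells (96-well), add compound at 5 concentrations, incubate 48 h, interpolate endpoints linearly. GI50 = concentration required for 50% inhibition of growth. TGI: total growth inhibition.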

Tests used:
Assay in all cases: NCI-60 cell line screen, 48 h
[1] = test system: DU-145 prostate
[2] = test system: OVCAR-8 ovarian
[3] = test system: A498 renal
[4] = test system: BT-549 breast
[5] = test system: NCI-H522 lung
[6] = test system: XF 498 CNS
[7] = test system: SNB-78 CNS
[8] = test system: KM20L2 colon
[9] = test system: M19-MEL melanoma
[10] = test system: DMS 273 small cell lung
[11] = test system: DLD-1 colon
[12] = test system: LXFL 529 NSCLC
[13] = test system: DMS 114 small cell lung

| Compound | TGI [1] | TGI [2] | TGI [3] | TGI [4] | TGI [5] | other results |
| --- | --- | --- | --- | --- | --- | --- |
| COP(C)(=O)C(Cc1c[nH]c2ccccc12)NC(=O)OCc1ccccc1 (stereo unspecified) | > 100 µM | > 100 µM | > 100 µM | > 100 µM |  |  |
| CC1(C)c2ccccc2C(O)C12CCC(=O)CC2 (stereo unspecified) | > 100 µM |  | > 100 µM |  | > 100 µM |  |
| CCN(CC)CCC(=O)c1ccc(Oc2ccc(F)cc2)cc1 | 53.1 µM | 57.6 µM |  | 32.8 µM |  |  |
| CC1(C)CC[C@]2(C(=O)O)[C@H](O)C[C@]3(C)C(=CC[C@@H]4[C@@]5(C)CC[C@H](OC6OC(C(=O)O)C(O)C(O)C6O)C(C)(C)[C@@H]5CC[C@]43C)[C@@H]2C1 (stereo partly specified) | > 100 µM | > 100 µM | 37.4 µM | 34.2 µM | > 100 µM |  |
| C=CCN1CCC2(CC1)NC(=O)c1ccccc1O2 | > 100 µM | > 100 µM |  | > 100 µM | > 100 µM |  |
| Cc1cc(O)c(C(C)C)cc1N=Cc1ccccc1O | 17.4 µM | > 29.6 µM | 66.2 µM | 22 µM | 17.2 µM |  |
| C=CC1(c2ccc(OC)cc2)OCCCO1 | > 100 µM | > 100 µM |  |  | > 100 µM |  |
| C[N+](C)(N)c1nc(N)c(C#N)c(C#N)c1C#N | > 10 µM | > 10 µM | > 10 µM |  | > 10 µM |  |
| C#CCOC(=O)C(N)CCSC (stereo unspecified) | > 100 µM | > 100 µM | > 100 µM | > 100 µM | > 100 µM |  |
| CC(=O)C1(O)Cc2c(O)c3c(c(O)c2C(OC2CC(N)C(O)C(C)O2)C1)C(=O)c1ccccc1C3=O (stereo unspecified) | 0.438 µM and 0.0587 µM | 0.597 µM and 0.817 µM | 0.0453 µM | 0.652 µM and 1.2 µM | 0.119 µM and 0.0672 µM | TGI [6]: 0.181 µM; TGI [7]: 0.592 µM; GI50 [1]: < 0.0104 µM; GI50 [2]: 0.0147 µM; TGI [8]: 0.203 µM; TGI [9]: 0.121 µM; GI50 [5]: 0.0183 µM; GI50 [4]: 0.0603 µM; TGI [10]: < 0.0108 µM; TGI [11]: 0.498 µM; TGI [12]: 0.25 µM |
| COc1cc2c(c(OC)c1OC)-c1ccc(SC)cc1C(=O)CC2 |  | > 100 µM |  | > 100 µM |  |  |
| CN(C)CCn1nc(N)c2nc3cc(C(F)(F)F)ccc3nc21 | > 100 µM | > 100 µM | > 100 µM | > 100 µM | > 100 µM |  |
| CCCCCCCCCCSCC(CO)NC(=O)/C=C/c1c(C)[nH]c(=O)[nH]c1=O (stereo unspecified) |  | 18.6 µM and 10.4 µM | > 50 µM |  | 1.68 µM and 6.76 µM | TGI [6]: 2.19 µM and 3.61 µM; TGI [7]: > 31.6 µM; TGI [8]: > 50 µM; GI50 [3]: 1.98 µM and 4.94 µM; TGI [9]: 14.8 µM and > 39.5 µM; GI50 [10]: 1.97 µM and 4.58 µM; TGI [10]: > 50 µM; TGI [13]: 5.93 µM and 4.33 µM; TGI [11]: > 50 µM |
| COc1ccccc1NCC(=O)Nn1c(C)nc2ccc(S(=O)(=O)Nc3ccccc3OC)cc2c1=O | > 100 µM | > 100 µM |  | > 100 µM | > 100 µM |  |
| COC(=O)[C@H](CCSC)NC(=O)c1ccc(CNC(=O)/C(C)=C/c2ccccc2)cc1 | > 100 µM | 51.4 µM | > 100 µM | 60.9 µM | 32.5 µM |  |
| CC(/C=N/NC1=NCCCN1)=N\NC1=NCCCN1 |  | > 100 µM |  | > 100 µM | > 100 µM |  |
| Cc1ccc2c(=O)c(-c3n[nH]c(=S)s3)c[nH]c2n1 | > 100 µM | > 100 µM | > 100 µM | > 100 µM | > 100 µM |  |
| NCCCC[C@H](N)C(=O)Nc1ccc(-c2nc3ccccc3s2)cc1Cl | 18 µM | > 43.9 µM | 2.07 µM | > 42.2 µM | 11 µM |  |
| O=C(NN=C1CCCCC1)NN=C1CCCCC1 | > 100 µM | > 100 µM |  | > 100 µM |  |  |
| CC1=CC(=O)/C(=C/n2c(=S)[nH]c3ccccc32)C(=O)O1 | > 100 µM | > 100 µM | > 100 µM | > 100 µM | > 100 µM |  |
| COc1ccc2c(c1)-c1[nH]c3ccccc3c1CC2 | 33.5 µM | 25.1 µM |  | 31.3 µM | 20.3 µM |  |
| O=C1OC(=O)C2C1C(c1ccccc1[N+](=O)[O-])C=C(c1ccco1)N2c1ccncc1 (stereo unspecified) | 19.7 µM | 31.8 µM | 26.9 µM | 35.4 µM | 6.17 µM |  |
| COc1ccccc1NS(=O)(=O)c1ccc2ncn(NS(=O)(=O)c3ccc(Cl)cc3)c(=O)c2c1 | > 100 µM | > 100 µM |  | > 100 µM | > 100 µM |  |
| O=[N+]([O-])c1ccc2ncccc2c1CCc1c([N+](=O)[O-])ccc2ncccc12 | > 100 µM | > 100 µM | > 100 µM | > 100 µM | > 100 µM |  |
| CN(C)c1ccc(/C=c2/c3cc([N+](=O)[O-])ccc3n3c2cc(-c2ccccc2)[n+]3C)cc1 | 6.68 µM | 27.7 µM | 7.94 µM | 13 µM | 1.9 µM |  |
| CCOC(=O)CC[C@H](N)C(=O)N[C@H](Cc1ccc(N(CCCl)CCCl)cc1)C(=O)OCC | 3.77 µM |  | 74.5 µM | > 38 µM | 6.76 µM |  |
| CN1B(c2ccccc2)N(C)C(=O)N(C)C1=O | > 100 µM | > 100 µM |  | > 100 µM |  |  |
| CN(CCO)/N=N/c1[nH]ncc1C(N)=O |  | > 100 µM | > 100 µM |  | > 100 µM | TGI [6]: > 100 µM; TGI [7]: > 100 µM; TGI [8]: > 100 µM; TGI [9]: > 100 µM; TGI [10]: > 100 µM; TGI [13]: > 100 µM; TGI [11]: > 100 µM |
| OC(CN1CCCCC1)c1ccc(/C=C/c2ccc(Cl)cc2)cc1 (stereo unspecified) | > 100 µM | > 100 µM | > 100 µM | > 100 µM | 72.7 µM |  |
| CC(C)c1cccc(C(C)C)c1OS(=O)(=O)NC(=O)OC(C(F)(F)F)C(F)(F)F | > 100 µM | > 100 µM | > 100 µM | > 100 µM | > 100 µM |  |
